Source: patent US7439418B2, “Anti-microbial peptide known as halocyntin, gene coding for said peptide, vector, transformed organism and composition containing said peptide” (Centre National de la Recherche Scientifique - CNRS, priority 2003, dated 2008)
Where no end group is shown, it is not given here.

Assays:
Assay type in all cases: cell-based
E. faecalis = experiment: Minimal bactericidal concentration (MBC); details: Mueller Hinton, 18 hours of incubation
Protocol: (§1) The minimal bactericidal concentration (MBC) for each bacterial strain tested was determined as follows: The peptide was placed in a solution containing 0.01% acetic acid and 0.2% bovine serum albumin (BSA), then, serial dilutions of 2 in 2 are realized in the same 0.01% solution of acetic acid and 0.2% BSA. 10 μl of each dilution are incubated in sterile 96-well plates (Becton Dickinson, USA, ref: 18572) in the presence of 100 μl of a bacterial suspension brought to an optical density of 0.001 at 600 nm in the Mueller Hinton environment (MHB, SIGMA, ref: M-9677).
(§2) The bacterial growth is monitored after 18 hours of incubation under agitation. The MBC is determined by spreading out the content of the first three wells in which no bacterial growth was observed. This spreading out was carried out on Petri dishes on which an agar was poured prepared from the Mueller Hinton environment. These dishes were then incubated 18 hours. The MBC corresponds to the lowest concentration of peptide for which no bacterial colony was observed on the incubated dishes.

N. gonorrhoeae = experiment: Minimal bactericidal concentration (MBC); details: Mueller Hinton, 18 hours of incubation
Protocol: as §1, §2

M. luteus = experiment: Minimal bactericidal concentration (MBC); details: Mueller Hinton, 18 hours of incubation
Protocol: as §1, §2

S. aureus = experiment: Minimal bactericidal concentration (MBC); details: Mueller Hinton, 18 hours of incubation
Protocol: as §1, §2

P. aeruginosa = experiment: Minimal bactericidal concentration (MBC); details: Mueller Hinton, 18 hours of incubation
Protocol: as §1, §2

A. viridans = experiment: Minimal bactericidal concentration (MBC); details: Mueller Hinton, 18 hours of incubation
Protocol: as §1, §2

B. megaterium = experiment: Minimal bactericidal concentration (MBC); details: Mueller Hinton, 18 hours of incubation
Protocol: as §1, §2

E. aerogenes = experiment: Minimal bactericidal concentration (MBC); details: Mueller Hinton, 18 hours of incubation
Protocol: as §1, §2

E. coli DH5α = experiment: Minimal bactericidal concentration (MBC); details: Mueller Hinton, 18 hours of incubation
Protocol: as §1, §2

K. pneumoniae = experiment: Minimal bactericidal concentration (MBC); details: Mueller Hinton, 18 hours of incubation
Protocol: as §1, §2

S. typhimutium = experiment: Minimal bactericidal concentration (MBC); details: Mueller Hinton, 18 hours of incubation
Protocol: as §1, §2

sheep erythrocytes = experiment: Hemolytic activity on sheep erythrocytes
Protocol: A known quantity of peptide was placed in a solution containing […] acetic acid and 0.2% bovine serum albumin (BSA) in such a manner as to obtain a stock solution with a concentration of […]; then, serial dilutions of this solution were realized in the same solution of 0.01% acetic acid and 0.2% BSA (AA-BSA). […] of each of these solutions or […] of a 10% Triton X-100 solution in PBS (control—peptide) were then added to 180 μl of a solution containing 2.5% (volume/volume) of the suspension of sheep erythrocytes in PBS. The mixture was then incubated 30 minutes at 37° C. then submitted to a centrifugation that 10000 g for 3 minutes. Finally, the supernatant was recovered and its absorbance measured at 600 nm. The percentage of hemolysis is then calculated with the following equation: % hemolysis=(A600 of the sample−A600 of control-peptide)/(A600 control 100% hemolysis−A600 control-peptide)×100.

FWGHIWNAVKRVGANALHGAVTGALS [halocyntin]
MBC (E. faecalis): 6.25 to 12.5 µM | MBC (N. gonorrhoeae): 25 to 50 µM | MBC (M. luteus): 1.56 to 3.13 µM | MBC (S. aureus): 6.25 to 12.5 µM | MBC (P. aeruginosa): >100 µM | MBC (A. viridans): 3.13 to 6.25 µM | MBC (B. megaterium): 0.75 to 1.56 µM | MBC (E. aerogenes): 25 to 50 µM | MBC (E. coli DH5α): 6.25 to 12.5 µM | MBC (K. pneumoniae): 12.5 to 25 µM | MBC (S. typhimutium): 50 to 100 µM | hemolytic activity (sheep erythrocytes; beyond 12.5 mM): very faint hemolytic activity | hemolytic activity (sheep erythrocytes; concentration of 50 μM, 30 minutes at 37° C.): 5.8% | hemolytic activity (sheep erythrocytes; up to concentrations of 12.5 mM): does not show any hemolytic activity
